According to patent US20260199484A1, “PROTAC DEGRADERS OF MLLT1 AND/OR MLLT3” (DARK BLUE THERAPEUTICS LTD, priority 2024, published 2026):

What was measured:
[1] = molecular target: T1, MLLT1 (Homo sapiens, UniProt Q03111); test: MLLT1 degradation assay in MV4-11 cells (JESS, 24 h); type: cell-based; parameters: endogenous in cells; host or cells: MV4-11 (ATCC CRL-9591); conditions: vs DMSO control
T1 sequence (Q03111 1-559): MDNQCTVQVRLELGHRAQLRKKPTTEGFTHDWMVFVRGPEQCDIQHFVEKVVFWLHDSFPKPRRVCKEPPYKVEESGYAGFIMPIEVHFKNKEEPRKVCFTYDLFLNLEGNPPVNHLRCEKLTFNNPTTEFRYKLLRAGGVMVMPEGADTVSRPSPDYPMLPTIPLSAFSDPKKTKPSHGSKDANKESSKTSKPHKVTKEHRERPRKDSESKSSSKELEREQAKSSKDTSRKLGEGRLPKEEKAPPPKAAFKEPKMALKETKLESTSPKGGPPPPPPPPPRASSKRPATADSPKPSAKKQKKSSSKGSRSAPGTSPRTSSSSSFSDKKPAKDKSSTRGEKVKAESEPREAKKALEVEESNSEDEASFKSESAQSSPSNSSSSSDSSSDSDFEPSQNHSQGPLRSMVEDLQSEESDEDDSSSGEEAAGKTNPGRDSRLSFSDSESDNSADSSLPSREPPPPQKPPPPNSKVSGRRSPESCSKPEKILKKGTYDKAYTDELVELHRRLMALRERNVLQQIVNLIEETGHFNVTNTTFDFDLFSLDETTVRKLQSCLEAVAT
In short: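 MV4-11 cells treated at 1000, 100 and 10 nM (0.1% DMSO) for 24 h at 37° C; lysates (4 ug protein) run on JESS capillary immunoassay with MLLT1 and GAPDH antibodies. Peak areas give % degradation versus DMSO, binned A (≥75%) to D (<25%).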

[2] = tested on: MV4-11 cells; test: MV4-11 cellular proliferative assay, Assay Format A (CellTiter-Glo, 120 h); type: cell-based; conditions: Homo sapiens, Assay format A, 120 h, read-out: IC50 (MV4-11 cellular proliferative assay)
Experimental: An MV4-11 proliferation assay was used to test the ability of compounds to reduce cell viability. MV4-11 cells (ATCC #CRL9591) were grown in IMDM medium (11510596, Gibco) supplemented with 10% fetal bovine serum (F7524, Gibco) and 1% Penicillin/Streptomycin (15140-122, Gibco) at 37° C. with 5% CO2. Cells were seeded in 384-well Elplasia plates (4447, Corning) at a density of 50 cells/well and treated with vehicle (DMSO) or compounds (10 serial semi-log dilutions, 30 μM as top concentration).
After 120 hours of treatment, cells were incubated for 10 min at RT with the CellTiter-Glo (CTG) reagent (G7571, Promega). Measurement of the luminescence signal was performed on a microplate reader (Ensight, PerkinElmer). CTG reagent measures the amount of ATP, which is directly proportional to the number of cells, to determine the number of viable cells in culture.
The data were analysed as follows:
[formula] • where x is the measured raw signal value of a well, (cr) is the median of the measured signal values for the Central Reference (DMSO) wells on a plate, (sr) is the median of the measured signal values for the Scale Reference (reference compound) wells on a plate.
[formula] • where the experimental set-up assumes the Hill parameters in certain ranges: S0~Central Reference (CR) from normalization (=Bottom), Sinf~Scale Reference (SR) from normalization (=Top), nHill ~1, AC50~within the measured concentration range.

Row | Structure (SMILES) | MLLT1% Degradation @ 0.01 μM [1] | MLLT1% Degradation @ 0.1 μM [1] | MLLT1% Degradation @ 1 μM [1] | IC50 [2] [µM]
1 | Cc1nn(CCCOCC#Cc2cccc3c2CN(C2CCC(=O)NC2=O)C3=O)c2cc(C(=O)Nc3cc4[nH]c([C@H]5CCCN5C)cc4cn3)ccc12 (stereo partly drawn) [Example 31, 1-(3-((3-(2-(2,6-dioxopiperidin-3-yl)-1-oxoisoindolin-4-yl)prop-2-yn-1-yl)oxy)propyl)-3-methyl-N-(2-((R)-1-methylpyrrolidin-2-yl)-1H-pyrrolo[3,2-c]pyridin-6-yl)-1H-indazole-6-carboxamide] | C (Category C: 25%≤C<50% degradation) | B (Category B: 50%≤B<75% degradation) | A (Category A: A≥75% degradation) | < 0.1
2 | Cc1nn(CCCC#Cc2cccc3c2CN(C2CCC(=O)NC2=O)C3=O)c2cc(C(=O)Nc3cc4[nH]c([C@H]5CCCN5C)cc4cn3)ccc12 (stereo partly drawn) [Example 32, 1-(5-(2-(2,6-dioxopiperidin-3-yl)-1-oxoisoindolin-4-yl)pent-4-yn-1-yl)-3-methyl-N-(2-((R)-1-methylpyrrolidin-2-yl)-1H-pyrrolo[3,2-c]pyridin-6-yl)-1H-indazole-6-carboxamide] | B (Category B: 50%≤B<75% degradation) | A (Category A: A≥75% degradation) | B (Category B: 50%≤B<75% degradation) | < 0.1
3 | Cc1nn(CCCCCCCC#Cc2cccc(C(=O)N[C@H]3CCC(=O)NC3=O)n2)c2cc(C(=O)Nc3cc4[nH]c([C@H]5CCCN5C)cc4cn3)ccc12 [Example 42, 1-(9-(6-(((S)-2,6-dioxopiperidin-3-yl)carbamoyl)pyridin-2-yl)non-8-yn-1-yl)-3-methyl-N-(2-((R)-1-methylpyrrolidin-2-yl)-1H-pyrrolo[3,2-c]pyridin-6-yl)-1H-indazole-6-carboxamide] | B (Category B: 50%≤B<75% degradation) | A (Category A: A≥75% degradation) | A (Category A: A≥75% degradation) | < 0.1
4 | [2H]C([2H])([2H])N1CCC[C@@H]1c1cc2cnc(NC(=O)c3ccc4c(C)nn(CCCCCCCC#Cc5cccc6c5CN(C5CCC(=O)NC5=O)C6=O)c4c3)cc2[nH]1 (stereo partly drawn) [Example 44, 1-(9-(2-(2,6-dioxopiperidin-3-yl)-1-oxoisoindolin-4-yl)non-8-yn-1-yl)-3-methyl-N-(2-((R)-1-(methyl-d3)pyrrolidin-2-yl)-1H-pyrrolo[3,2-c]pyridin-6-yl)-1H-indazole-6-carboxamide] | B (Category B: 50%≤B<75% degradation) | A (Category A: A≥75% degradation) | A (Category A: A≥75% degradation) | < 0.1
5 | Cc1nn(CCCCC#Cc2cccc3c2CN(C2CCC(=O)NC2=O)C3=O)c2cc(C(=O)Nc3cc4[nH]c([C@H]5CCCN5C)cc4cn3)ccc12 (stereo partly drawn) [Example 46, 1-(6-(2-(2,6-dioxopiperidin-3-yl)-1-oxoisoindolin-4-yl)hex-5-yn-1-yl)-3-methyl-N-(2-((R)-1-methylpyrrolidin-2-yl)-1H-pyrrolo[3,2-c]pyridin-6-yl)-1H-indazole-6-carboxamide] | A (Category A: A≥75% degradation) | A (Category A: A≥75% degradation) | B (Category B: 50%≤B<75% degradation) | < 0.1
6 | CCN1CCC[C@@H]1c1cc2cnc(NC(=O)c3ccc4c(C)nn(CCCCCCCC#Cc5cccc6c5CN(C5CCC(=O)NC5=O)C6=O)c4c3)cc2[nH]1 (stereo partly drawn) [Example 48, 1-(9-(2-(2,6-dioxopiperidin-3-yl)-1-oxoisoindolin-4-yl)non-8-yn-1-yl)-N-(2-((R)-1-ethylpyrrolidin-2-yl)-1H-pyrrolo[3,2-c]pyridin-6-yl)-3-methyl-1H-indazole-6-carboxamide] | C (Category C: 25%≤C<50% degradation) | B (Category B: 50%≤B<75% degradation) | A (Category A: A≥75% degradation) | < 0.1

Next, values leading:

Row | MLLT1% Degradation @ 0.01 μM [1] | MLLT1% Degradation @ 0.1 μM [1] | MLLT1% Degradation @ 1 μM [1] | IC50 [2] [µM] | Structure (SMILES)
7 | A (Category A: A≥75% degradation) | A (Category A: A≥75% degradation) | A (Category A: A≥75% degradation) | < 0.1 | Cc1nn(CCCCCC#Cc2cccc3c2CN(C2CCC(=O)NC2=O)C3=O)c2cc(C(=O)Nc3cc4[nH]c([C@H]5CCCN5C)cc4cn3)ccc12 (stereo partly drawn) [Example 30, 1-(7-(2-(2,6-dioxopiperidin-3-yl)-1-oxoisoindolin-4-yl)hept-6-yn-1-yl)-3-methyl-N-(2-((R)-1-methylpyrrolidin-2-yl)-1H-pyrrolo [3,2-c]pyridin-6-yl)-1H-indazole-6-carboxamide]
8 | B (Category B: 50%≤B<75% degradation) | B (Category B: 50%≤B<75% degradation) | A (Category A: A≥75% degradation) | < 0.1 | Cc1nn(CCCCCC#Cc2cccc3c2C(=O)N(C2CCC(=O)NC2=O)C3=O)c2cc(C(=O)Nc3cc4[nH]c([C@H]5CCCN5C)cc4cn3)ccc12 (stereo partly drawn) [Example 33, 1-(7-(2-(2,6-dioxopiperidin-3-yl)-1,3-dioxoisoindolin-4-yl)hept-6-yn-1-yl)-3-methyl-N-(2-((R)-1-methylpyrrolidin-2-yl)-1H-pyrrolo[3,2-c]pyridin-6-yl)-1H-indazole-6-carboxamide]
9 | A (Category A: A≥75% degradation) | A (Category A: A≥75% degradation) | A (Category A: A≥75% degradation) | < 0.1 | CN1CCC[C@@H]1c1cc2cnc(NC(=O)c3ccc4c(cnn4CCCCCCCCNc4cccc5c4C(=O)N(C4CCC(=O)NC4=O)C5=O)c3)cc2[nH]1 (stereo partly drawn) [Example 36, 1-(8-((2-(2,6-dioxopiperidin-3-yl)-1,3-dioxoisoindolin-4-yl)amino)octyl)-N-(2-((R)-1-methylpyrrolidin-2-yl)-1H-pyrrolo[3,2-c]pyridin-6-yl)-1H-indazole-5-carboxamide]
10 | B (Category B: 50%≤B<75% degradation) | A (Category A: A≥75% degradation) | B (Category B: 50%≤B<75% degradation) | < 0.1 | CN1CCC[C@@H]1c1cc2cnc(NC(=O)c3ccc4c(cnn4CCCCCCCC#Cc4cccc5c4CN(C4CCC(=O)NC4=O)C5=O)c3)cc2[nH]1 (stereo partly drawn) [Example 38, 1-(9-(2-(2,6-dioxopiperidin-3-yl)-1-oxoisoindolin-4-yl)non-8-yn-1-yl)-N-(2-((R)-1-methylpyrrolidin-2-yl)-1H-pyrrolo[3,2-c]pyridin-6-yl)-1H-indazole-5-carboxamide]
11 | A (Category A: A≥75% degradation) | A (Category A: A≥75% degradation) | A (Category A: A≥75% degradation) | < 0.1 | Cc1nn(CCCCCCC#Cc2cccc3c2CN(C2CCC(=O)NC2=O)C3=O)c2cc(C(=O)Nc3cc4[nH]c([C@H]5CCCN5C)cc4cn3)ccc12 (stereo partly drawn) [Example 45, 1-(8-(2-(2,6-dioxopiperidin-3-yl)-1-oxoisoindolin-4-yl)oct-7-yn-1-yl)-3-methyl-N-(2-((R)-1-methylpyrrolidin-2-yl)-1H-pyrrolo[3,2-c]pyridin-6-yl)-1H-indazole-6-carboxamide]
12 | D (Category D: D<25% degradation) | D (Category D: D<25% degradation) | B (Category B: 50%≤B<75% degradation) | < 0.1 | Cc1nn(CCCCCN2CCN(c3cccc4c3C(=O)N(C3CCC(=O)NC3=O)C4=O)CC2)c2cc(C(=O)Nc3cc4[nH]c([C@H]5CCCN5C)cc4cn3)ccc12 (stereo partly drawn) [Example 47, 1-(5-(4-(2-(2,6-dioxopiperidin-3-yl)-1,3-dioxoisoindolin-4-yl)piperazin-1-yl)pentyl)-3-methyl-N-(2-((R)-1-methylpyrrolidin-2-yl)-1H-pyrrolo[3,2-c]pyridin-6-yl)-1H-indazole-6-carboxamide]
